From patent publication US20090170947A1, “DISINFECTANT COMPOSITIONS, METHODS AND SYSTEMS” (priority 2007, published 2009)
Where a name gives a salt, the structure may show the parent alone.

Assays:
[1] = humans; doses of up to 3000 mg infused over 3 hours, daily; cited from earlier work
P. aeruginosa = assay: Checkerboard Titration, P. aeruginosa; assay type: cell-based, Pseudomonas aeruginosa; details: PHMB with EDTA(Na4)
Experimental: (§3) The method used was a NCCLS micro-dilution procedure
(§4) Fraction Inhibitory Concentration (FIC) is defined as the MIC of the compound in combination divided by the MIC of the compound alone. If the FIC index is <0.5, the combination is interpreted to be synergistic; <1 but >0.5—as partially synergistic; =1 as additive; >1 but <4 as indifferent; and ≧4 as antagonistic. In order to calculate the FIC index the following calculations are performed for compounds A and B: • FIC-A=(MIC of A in combination)/(MIC of A alone) • FIC-B=(MIC of B in combination)/(MIC of B alone) • FIC-combination=FIC-A+FIC-B

[2] = test system: blood coagulation (clotting); assay: Prothrombin Time (PT) Assay; assay type: biochemical; details: concentration of TEDTA of 4 wt %; ISI 1.89
Experimental: Experiments were conducted to assess the anticoagulant capacities of PHMB, EDTA and combinations of PHMB and EDTA via a Prothrombin Time (PT) Assay. A PT assay (TM-4339-063) was conducted using a Coagulation Analyzer to obtain PT instead of manually recording the PT. Tetrasodium […]) was used (Alfa Aesar, Catalog #A17385, Lot #J9570A). […] […] […] INR is calculated as: INR=([…] sample/PTnormal control)^ISI ISI (International Sensitivity Index) indicates the sensitivity of individual thromboplastin. […] All the PTs greater than 3×the […] 1 (normal control) were replaced with 32 seconds.

C. albicans = assay: Checkerboard Titration, C. albicans; assay type: cell-based, Candida albicans; details: PHMB with EDTA(Na4)
Experimental: as §3, §4

S. aureus = assay: Checkerboard Titration, S. aureus; assay type: cell-based, Staphylococcus aureus; details: PHMB with EDTA(Na4)
Experimental: The following concentrations were tested: Fraction Inhibitory Concentration (FIC) is defined as the MIC of the compound in combination divided by the MIC of the compound alone. […] In order to calculate the FIC index the following calculations are performed for compounds A and B: • FIC-A=(MIC of A in combination)/(MIC of A alone) • FIC-B=(MIC of B in combination)/(MIC of […]

[3] = test system: Candida Albicans (Organism #10231); assay: MIC/MBC micro-dilution at pH 7, C. albicans; assay type: cell-based; details: pH of 7
Experimental: (§1) In order to determine MIC (minimum inhibitory concentration) and MBC (minimum bactericidal concentration) a National Committee on Clinical Laboratory Standards (NCCLS) micro-dilution procedure was followed. According to the procedure each formulation must be exposed to 6 log concentration of organism or the highest achievable concentration. In the current protocol 100 μL of MHB was mixed with 90 μL of formulation and 10 μL of log 8 organism or the highest achievable concentration. The concentration of the formulation was adjusted to obtain the required concentration in the final solution. The mixture was incubated at 37 degree C. for 16-24 hrs. After 16-24 hours the absorbance value was read at 600 nm. The obtained data was corrected by subtracting the appropriate blanks. Finally, the wells having an absorbance >0.1 were marked + and <0.1 were marked −. The +symbol indicated growth while −symbol indicates no growth.
(§2) Staphylococcus aureus (Organism #25923), Pseudomonas aeruginosa (Organism #27853), and Candida Albicans (Organism #10231) was obtained from ATCC. […] These solutions were then serially diluted as necessary to obtain the required concentrations.

[4] = test system: Pseudomonas aeruginosa (Organism #27853); assay: MIC/MBC micro-dilution at pH 7, P. aeruginosa; assay type: cell-based; details: pH of 7
Experimental: as §1, §2

[5] = test system: Staphylococcus aureus (Organism #25923); assay: MIC/MBC micro-dilution at pH 7, S. aureus; assay type: cell-based; details: pH of 7
Experimental: as §1, §2

[6] = rabbit, in vivo; cited from earlier work

Molecule: O=C([O-])CN(CCN(CC(=O)[O-])CC(=O)O)CC(=O)O.[Na+].[Na+] [EDTA disodium]
- Tolerability [1]: well tolerated

Molecule: O=C([O-])CN(CCN(CC(=O)[O-])CC(=O)[O-])CC(=O)[O-].[Na+].[Na+].[Na+].[Na+] [EDTA(Na4), EDTA, tetrasodium salt hydrate]
- FIC of the single component (MIC in combination / MIC alone) (P. aeruginosa): 0.25
- International Normalized Ratio (INR) [2]: greater than 7.25
- FIC of the single component (MIC in combination / MIC alone) (C. albicans): 0.3
- FIC of the single component (MIC in combination / MIC alone) (S. aureus): 0.4

Molecule: O=C(O)CN(CCN(CC(=O)O)CC(=O)O)CC(=O)O [EDTA, EDTA, tetrasodium salt hydrate]
- MIC [3]: > 4.0 wt %
- MBC [4]: < 4.00 wt %
- MIC [4]: < 0.25 wt %
- MBC [5]: < 0.13 wt %
- MIC [5]: < 0.03 wt %

Molecule: Poly(hexamethylenebiguanide) [PHMB]
- NOAEL [6]: NOAEL = 20 mg/kg/day
